Measurements published in patent US20040072865A1, “Aryl piperidine derivatives as inducers of ldl-receptor expression” (priority 2003, published 2004).
Read-outs that look alike come from different tables or passages of the source.

Key:
[1] = tested on: fat-fed hamsters; test: Oral administration to fat-fed hamsters, reduction in VLDL/LDL cholesterol and TG plasmatic levels; type: in vivo, hamster; details: for ED50: Mesocricetus auratus, 72 h, fat-fed hamsters, oral, once a day for 3 days, reductions in VLDL/LDL cholesterol and TG plasmatic levels, read-out: In vivo (ED50)
Method: The in vivo profile of the compounds is evaluated by oral administration of the compounds of the invention to fat-fed hamsters. Measurements of VLDL/LDL cholesterol and triglycerides upon treatment allow to determine the activity.
Compounds were prepared for oral administration by milling with 0.5% hydroxypropylmethylcellulose and 5% Tween 80. Hamsters were fed for 2 weeks with a diet containing 0.2% of cholesterol and 10% of coconut oil. Then compounds were administrated once a day for 3 days, from 20 to 0.2 mg/kg. Plasma lipid levels including total cholesterol, VLDL/LDL cholesterol, VLDL/LDL triglycerides and HDL-cholesterol were determinated after ultracentrifugation (density 1.063 g/ml to separate VLDL/LDL fraction and HDL fraction) using the Biomerieux erizymatic kit. Reductions in VLDL/LDL cholesterol and TG plasmatic levels were calculated taking solvant treated animals as control and ED50 of each compound was determined.

[2] = tested on: LDL-r promoter; test: LDL-r promoter luciferase reporter gene assay in stably transfected HepG2 cells; type: cell-based, human; details: read-out: In vitro (IC50)

| Structure (SMILES) | melting point [°C] | further results |
| --- | --- | --- |
| Cc1ccc(C2CCN(CCCCNC(=O)c3ccc(-c4ccc(C#N)cc4)cc3)CC2)c(OP(=O)(O)O)c1 | 70 | – |
| CCOP(=O)(OCC)Oc1cc(CC)ccc1C1CCN(CCCCNC(=O)c2ccc(NC(=O)c3ccc(Cl)cc3)cc2)CC1 | 158 to 160 | – |
| Cc1ccc(C2CCN(CCCCNC(=O)c3ccc(NC(=O)c4ccc(Cl)cc4)cc3)CC2)c(O)c1.Cl [Example 1, 4-(4-chloro-benzoylamino)-N-{4-[4-(5-methyl-2-piperidinyl-phenol)]-butyl}-benzamide Hydrochloride] | – | In vivo (ED50) ([1]; hamster, in vivo, po): 10 to 15 mg/kg; IC50 [2]: 30 nM |
| CC(=O)Oc1cc(C)ccc1C1CCN(CCCCNC(=O)c2ccc(NC(=O)c3ccc(Cl)cc3)cc2)CC1 [Example 2, Acetic Acid 2-(1-{4-[4-(4-chloro-benzoylamino)-benzoylamino]-butyl}-piperidin-4-yl)-5-methyl-phenyl Ester] | 210 | ED50 [1]: 5 mg/kg |
| CCOP(=O)(OCC)Oc1cc(C)ccc1C1CCN(CCCCNC(=O)c2ccc(NC(=O)c3ccc(Cl)cc3)cc2)CC1 [Example 3, Phosphoric Acid 2-(1-{4-[4-(4-chloro-benzoylamino)-benzoylamino]-butyl}-piperidin-4-yl)-5-methyl-phenyl Ester Diethyl Ester] | 230 | ED50 [1]: 5 mg/kg; IC50 ([2]; Homo sapiens, HepG2 cells with LDL-r promoter-luciferase construct, 24 hours incubation, induction of luciferase activity): 30 nM |
| CCc1ccc(C2CCN(CCCCNC(=O)c3ccc(NC(=O)c4ccc(Cl)cc4)cc3)CC2)c(OC(C)=O)c1 [Example 5, Acetic Acid 2-(1-{4-[4-(4-chloro-benzoylamino)-benzoylamino]-butyl}-piperidin-4-yl)-5-ethyl-phenyl Ester] | 192 to 194 | – |
| CCc1ccc(C2CCN(CCCCNC(=O)c3ccc(-c4ccc(C#N)cc4)cc3)CC2)c(O)c1 [Example 6, 4′-Cyano-biphenyl-4-carboxylic Acid {4-[4-(2-hydroxy-4-ethyl-phenyl)-piperidin-1-yl]-butyl}-amide] | 252 | – |
| Cc1ccc(C2CCN(CCCCNC(=O)c3ccc(-c4ccc(C#N)cc4)cc3)CC2)c(O)c1 [Example 20, 4′-Cyano-biphenyl-4-carboxylic Acid {4-[4-(2-hydroxy-4-methyl-phenyl)-piperidin-1-yl]-butyl}-amide] | 184 | – |
| CC(=O)Oc1cc(C)ccc1C1CCN(CCCCNC(=O)c2ccc(-c3ccc(C#N)cc3)cc2)CC1 [Example 21, Acetic Acid 2-(1-{4-[(4′-cyano-biphenyl-4-carbonyl)-amino]-butyl}-piperidin-4-yl)-5-methyl-phenyl Ester] | 128 to 130 | – |
